Results as given in US20120196335A1, “LIGF-TYPE TRANSFORMANTS FOR BIOCONVERSION OF LIGNIN-DERIVED COMPOUNDS” (priority 2010, published 2012).

Tests used:
Escherichia coli = details: cited from earlier work; for antibacterial activity against Escherichia coli: benzaldehyde derivatives, each alone; for antimicrobial activity against Escherichia coli: each compound alone, known
Saccharomyces cerevisiae = details: each compound alone; cited from earlier work
[1] = LigDFEG gene cluster, FIG. 2B; cited from earlier work
[2] = in vitro biochemical assay for beta-etherase activity on fluorescent substrate MUAV (clarified E. coli cell extracts); details: for total activity (beta-etherase): 0.1 mM MUAV substrate, E. coli cell extracts expressing the protein
Description: The model substrate synthesis 150 for use in the biochemical screening for selective activity can be outsourced through a contract research organization (CRO). The enzyme discovery effort can initially be focused on identifying potential beta-etherase candidate genes identified through bioinformatic methods. […] The fluorescent substrate α-O-(β-methylumbelliferyl)acetovanillone (MUAV), for example, can be used in in vitro assays to identify beta-etherase function (Acme Biosciences, Mt. View, Calif.). The formation of 4 methylumbelliferone (4MU) upon hydrolysis of the aryl ether bond can be monitored by fluorescence, for example, at λex=365 nm and λem=450 nm (or 460 nm).
The enzyme screening 155 is done to identify novel etherases 160. […] Expression of the beta-etherase genes can be done in 5 ml or 25 ml samples of the recombinant E. coli strains in LB medium using induction with IPTG. Following induction, and cell harvest, cell pellets can be lysed using the BPER (Invitrogen) cell lysis system. […] The formation of 4 methylumbelliferone (4MU) upon hydrolysis of the aryl ether bond in MUAV can be monitored by fluorescence at λex=365 nm and λem=460 nm, and can provide quantitative measurement of beta-etherase function. Cell extracts of E. coli transformed with the S. paucimobilis ligE and ligF genes can be the assay positive controls. Test or unknown samples can include, for example, E. coli strains expressing putative beta-etherase genes from N. aromaticovorans.
This example describes a method for gene expression in E. coli, as well as beta-etherase biochemical assays. Expression of known and putative beta-etherase genes was performed using 5 ml cultures of the recombinant E. coli strains described herein in Luria Broth medium by induction of gene expression using isopropylthiogalactoside (IPTG) to a final concentration of 0.1 mM. Following induction, and cell harvest, the cells were disrupted using either sonication or the BPER (Invitrogen) cell lysis system.
In vitro reactions were performed in a total volume of 200 ul and contained: 25 mM TrisHCl pH 7.5; 0.5 mM dithiothreitol; 1 mM glutathione; 0.05 mM or 0.1 mM MUAV; 10 ul of clarified cell extract used to initiate the reactions. Following incubation for 2.5 hours at room temperature, a 50 ul sample of the reactions was terminated using 150 uL of 300 mM glycine/NaOH buffer pH 9. The formation of 4 methylumbelliferone (4MU) upon hydrolysis of the aryl ether bond was monitored by the increase in fluorescence at λex=360 nm and λem=450 nm using a Spectramax UV/visible/fluorescent spectrophotometer.
The total protein concentrations of the cell lysates were determined using the BCA reagent system for protein quantification (Pierce).
Induction might be also performed using IPTG concentrations in the range of 0.01-1 mM. Cell disruption might be also performed using toluene permeabilization, French pressure techniques, or using multiple freeze/thaw cycles in conjunction with lysozyme. Assay conditions might be varied to include TrisHCl at 10-150 mM concentrations and in the pH range of 6.5-8.5; 0-2 mM dithiothreitol; 0.05-2 mM glutathione; 0.01-5 mM MUAV substrate; 22-42° C. reaction temperatures. The biochemical assay might be performed as a fixed time point assay with reaction times ranging from 5 minutes-12 hours, or performed continuously without quenching with glycine/NaOH buffer to extract enzyme kinetic parameters.

O=Cc1ccc(O)c(O)c1O [2,3,4-trihydroxybenzaldehyde]
antibacterial activity against Escherichia coli (Escherichia coli): antibacterial activity

O=Cc1cccc(O)c1O [2,3-dihydroxybenzaldehyde]
antibacterial activity against Escherichia coli (Escherichia coli): antibacterial activity

O=Cc1c(O)cc(O)cc1O [2,4,6-trihydroxybenzaldehyde]
antibacterial activity against Escherichia coli (Escherichia coli): antibacterial activity

O=Cc1ccc(O)cc1O [2,4-dihydroxybenzaldehyde]
antibacterial activity against Escherichia coli (Escherichia coli): antibacterial activity

O=Cc1cc(O)ccc1O [2,5-dihydroxybenzaldehyde]
antibacterial activity against Escherichia coli (Escherichia coli): antibacterial activity

COc1cccc(C=O)c1O [2-hydroxy-3-methoxybenzaldehyde]
antibacterial activity against Escherichia coli (Escherichia coli): antibacterial activity

COc1ccc(O)c(C=O)c1 [2-hydroxy-5-methoxybenzaldehyde]
antibacterial activity against Escherichia coli (Escherichia coli): antibacterial activity

O=Cc1ccccc1O [2-hydroxybenzaldehyde]
antibacterial activity against Escherichia coli (Escherichia coli): antibacterial activity

COc1cc(O)cc(OC)c1C=O [4-hydroxy-2,6-dimethoxybenzaldehyde]
antibacterial activity against Escherichia coli (Escherichia coli): antibacterial activity

O=Cc1ccc(O)cc1 [4-hydroxybenzaldehyde]
antimicrobial activity against Escherichia coli (Escherichia coli): antimicrobial activity

O=Cc1ccc(CO)o1 [5-hydroxymethylfurfural]
antimicrobial activity against Escherichia coli (Escherichia coli): antimicrobial activity

COc1ccc(C=O)cc1OC [Veratraldehyde]
antifungal activity against the yeast Saccharomyces cerevisiae (Saccharomyces cerevisiae): significant antifungal activities

O=C(O)C=Cc1ccccc1 [cinnamic acid]
antifungal activity against the yeast Saccharomyces cerevisiae (Saccharomyces cerevisiae): significant antifungal activities

O=Cc1ccco1 [furfural]
antimicrobial activity against Escherichia coli (Escherichia coli): antimicrobial activity

O=C(O)/C=C/c1cccc(O)c1 [m-coumaric acid]
antifungal activity against the yeast Saccharomyces cerevisiae (Saccharomyces cerevisiae): significant antifungal activities

O=C(O)/C=C/c1ccccc1O [o-coumaric acid]
antifungal activity against the yeast Saccharomyces cerevisiae (Saccharomyces cerevisiae): significant antifungal activities

O=C(O)/C=C/c1ccc(O)cc1 [p-coumaric acid]
antifungal activity against the yeast Saccharomyces cerevisiae (Saccharomyces cerevisiae): significant antifungal activities

COc1cc(C=O)cc(OC)c1O [syringaldehyde]
antimicrobial activity against Escherichia coli (Escherichia coli): antimicrobial activity

COc1cc(C(=O)O)ccc1O [vanillic acid]
antifungal activity against the yeast Saccharomyces cerevisiae (Saccharomyces cerevisiae): significant antifungal activities

COc1cc(C=O)ccc1O [vanillin]
antimicrobial activity against Escherichia coli (Escherichia coli): antimicrobial activity

COc1cc(CCC(C)=O)ccc1O [vanillylacetone]
antifungal activity against the yeast Saccharomyces cerevisiae (Saccharomyces cerevisiae): significant antifungal activities

LigD: S. paucimobilis C alpha-dehydrogenase, ligD gene product
enzyme activity shown by gene product [1]: Cα-dehydrogenase activity

B1: ABD27309.1: N. aromaticivorans putative beta-etherase polypeptide LigF-3, SEQ ID NO:545 (protein)
chain: MDEVSLYHWEPNANSGKPMLALMEKGVPFSSHYIDMLQFDQHKPEYLAINPQGTIPAMTHNGQVLTESTAIMEYVNDRFDGPDLMPADAQDRWRVRWWMKFMDQWLGPSFSMIGWSVFVGPMVRQRDPAELAAAIDRIPLPERRTAWRKAINGDFSESEMAESRRRVGLGIAKLEEELGKRPYVGSNQYSLADINIFNSTYSLPISQPDLAGKDRTPNIMRWLKRVYTREAVKKTWAMGKTDLAHRYGLIMAEIEG
beta-etherase activity on the MUAV substrate (in words) ([2]; MUAV substrate): beta-etherase activity

B2: LigG: S. paucimobilis glutathione-eliminating glutathione S transferase, ligG gene product (protein)
chain: MSGASARSLGKGSAPPGPVPEGQIRVYSMRFCPFAQRTLMVLKAKGIRHEIININLKNKPEWFFEKNPFGLVPVLENTQGHLITESVITCEYLDEAYPEKKLFPDDPYEKACQKMTFELFSKVPSLVTSFIRAKRKEDHPGIKEELKKEFSKLEEAMANKRTAFFGGNSLSMIDYLIWPWFQRLEALELNECIDHTPKLKLWMATMQEDPVASSHFIDAKTYRDYLSLYLQDSPEACDYGL
enzyme activity shown by gene product [1]: glutathione lyase activity

B3: ABD26530.1: N. aromaticivorans putative beta-etherase polypeptide LigF-1, SEQ ID NO:539 (protein)
chain: MVIPLGEDNTIMLKLYSFGPAANSMKPLLTVFEKGLDVEKHRLDPAKFEHHTDWFKAINPRGQVPALVDGDKVVTESTVICEYLEDEYPTEVALRPADSFGKAQMRIWTKWVDEYFCWCVSTIGWHRYVGNMVKSLSDAEFEEKVKAIPVIEQQVKWRRAREGFPQDMLDEEMRKIAYSVRKLDDHLADHEWLVPGQYTLADICNFAIANGMQFGFAELVNKQDTPHLVRWIEQINERPAVKQMFAQVELEKLGPRE
beta-etherase activity on the MUAV substrate (in words) ([2]; MUAV substrate): beta-etherase activity

B4: ligE1: N. aromaticivorans beta-etherase polypeptide, glutathione S-transferase-like protein, GenBank ABD26841.1, SEQ ID NO:101 (protein)
chain: MAANNTITFYDLALSTGATISPFVWATKYALKHKGFDLDVVPGGFTGILERTGGKTERLPAIVDDGEFVLDSWGIVEYLDAKYPDRPVLIPHESVAATLKALDNWFWNAAVGPWMFCFCQDYRDLSLPQDHEYVTHSREKMLGRKLEEVQAGREERLPKISAALEPLRAALAQHQWLGGSSPNYADYRIMGGILFTASVCKTPVLANDDPLRDWIERCLDLYGGLGRHPGLFPLFGLEQREGDPDLFNRAAGQGGIYKRNTGPESTRAETQRITEGMKK
total activity (beta-etherase) [2]: 529 rfu/ug | beta-etherase activity on the MUAV substrate (in words) ([2]; MUAV substrate): beta-etherase activity | fold more efficient than S. paucimobilis ligE beta-etherase enzyme ([2]; MUAV substrate): approximately 75 fold

B5: ligE: S. paucimobilis beta-etherase, positive control, GenBank BAA02032.1, SEQ ID NO:1 (protein)
chain: MARNNTITLYDLQLESGCTISPYVWRTKYALKHKGFDIDIVPGGFTGILERTGGRSERVPVIVDDGEWVLDSWVIAEYLDEKYPDRPMLFEGPTQKNLMKFLDNWLWSTAVGPWFRCYILDYHDLSLPQDRDYVRWSREQWFLGGQRLEDVQAGREDRLPLVPPTLEPFRRILAETKWLGGDQPNFADYSALAVFLWTASVARTPPLTEDDPLRDWLDRGFDLFDGLGRHPGMNPLFGLKLREGDPEPFVRQTGPAGAGGQALNKGPQTTKMPPRVAEKAD
total activity (beta-etherase) [2]: 7 rfu/ug | enzyme activity shown by gene product [1]: β-etherase activity

B6: LigF2: N. aromaticivorans beta-etherase polypeptide, glutathione S-transferase-like protein, GenBank ABD27301.1, SEQ ID NO:541 (protein)
chain: MALKYYHAEPLANSLKSMVPLKEKGLAYESIYVDLHKFEQHQPWFTAINPEGQVPVLDHDGTIITHTTVINEYLEDAFPDAQPADAPLRPRDPVGAARMRYWNKFIDEHVMNYVSMHGWHRMVGVIARNIASGDFEKLLESIPLPDQRKKWATARSGFSEADLANATAKIEYALDKVEKQLGETKWLAGDTYTLADINFYSHCGAMVERMFPEMEVARRAPRLCEWRDRVAARPAVAEALKSEDRTAPGLRVWSGEVR
total activity (beta-etherase) [2]: 1206 rfu/ug | beta-etherase activity on the MUAV substrate (in words) ([2]; MUAV substrate): beta-etherase activity | fold more efficient than S. paucimobilis LigF protein ([2]; MUAV substrate): approximately 2 fold
